The values below come from ChEMBL document CHEMBL3046306, “Synthesis of new compounds derived from metronidazole and amino acids and their esters as antiparasitic agents” (Med Chem Res, 2012).

Each structure is given as a SMILES string.

A short description of series [1]: Cytotoxicity against Chlorocebus aethiops (African green monkey) Vero cells assessed as concentration at which cell growth as in negative control after 48 hr by hemocytometer. It is filed as cell-based. Conditions: chlorocebus sabaeus, read-out: Activity.
The nature of series [2]: Cytotoxicity against Homo sapiens (human) Hep2 cells assessed as concentration at which cell growth as in negative control after 48 hr by hemocytometer. It is filed as cell-based. Conditions: HEp-2 cells, read-out: Activity.
In a further series the test system is Giardia intestinalis. Description: Antiparasitic activity against Giardia intestinalis WB strain ATCC 30957 using trypan blue staining by hemocytometer. It is filed as functional, organism-based. Conditions: Giardia duodenalis.
The next series relates to Entamoeba histolytica. Description: Antiparasitic activity against Entamoeba histolytica HK-9 strain ATCC 30015 using trypan blue staining by hemocytometer. Type of series: functional, organism-based.

The term IC50 denotes the midpoint of a concentration-inhibition curve. Low readings indicate greater potency, high ones weaker potency. Consider `COC(=O)[C@H](CC(=O)O)NC(=O)Cn1c([N+](=O)[O-])cnc1C`, for which the MNTC at 48 h in series [1] was 314 µM; in series [2], 304 µM. The IC50 in the series on Giardia intestinalis was found to be 2.26 µM; in the series on Entamoeba histolytica, 2.21 µM.

Regarding `COC(=O)[C@H](Cc1ccc(O)cc1)NC(=O)Cn1c([N+](=O)[O-])cnc1C`, the IC50 in the series with Giardia intestinalis is 17.8 µM; with Entamoeba histolytica, 18.3 µM.

With `COC(=O)[C@H](Cc1c[nH]c2ccccc12)NC(=O)Cn1c([N+](=O)[O-])cnc1C`, the IC50 with Giardia intestinalis is 16.6 µM; with Entamoeba histolytica, 8.29 µM.

For `COC(=O)[C@H](Cc1cnc[nH]1)NC(=O)Cn1c([N+](=O)[O-])cnc1C`, the IC50 was 8.93 µM in the series with Giardia intestinalis and 8.91 µM in the series on Entamoeba histolytica.

As for `COC(=O)[C@@H]1CCCN1C(=O)Cn1c([N+](=O)[O-])cnc1C`, the MNTC at 48 h in series [1] came out at 204 µM; in series [2], 169 µM. The IC50 in the series on Giardia intestinalis was found to be 2.7 µM; in the series with Entamoeba histolytica, 2.54 µM.

In the case of `CCOC(=O)C(CCCCNC(=O)Cn1c([N+](=O)[O-])cnc1C)NC(=O)Cn1c([N+](=O)[O-])cnc1C` (configuration not stated), the IC50 in the series with Giardia intestinalis is 3.84 µM; with Entamoeba histolytica, 3.95 µM.

Turning to `Cc1ncc([N+](=O)[O-])n1CC(=O)N[C@@H](Cc1ccccc1)C(=O)O`, the IC50 is 22.2 µM in the series on Giardia intestinalis and 23.4 µM in the series with Entamoeba histolytica.

As for `Cc1ncc([N+](=O)[O-])n1CC(=O)N[C@@H](Cc1c[nH]c2ccccc12)C(=O)O`, the IC50 turned out to be 18 µM in the series on Giardia intestinalis and 17.2 µM in the series on Entamoeba histolytica.

Regarding `Cc1ncc([N+](=O)[O-])n1CC(=O)N[C@@H](Cc1cnc[nH]1)C(=O)O`, the half-inhibitory concentration (IC50) with Giardia intestinalis was determined as 17.2 µM; in the series with Entamoeba histolytica, 16.2 µM.

`CCOC(=O)[C@H](C)NC(=O)Cn1c([N+](=O)[O-])cnc1C`: the results for the MNTC at 48 h in series [1] and in series [2] were 72.2 µM and 69.7 µM, respectively. Further, the IC50 with Giardia intestinalis came to 2.18 µM; in the series with Entamoeba histolytica, 2.1 µM.

As to `COC(=O)[C@H](Cc1ccccc1)NC(=O)Cn1c([N+](=O)[O-])cnc1C`, the IC50 in the series on Giardia intestinalis was 44.4 µM; in the series with Entamoeba histolytica it was 22.1 µM.

Turning to `Cc1ncc([N+](=O)[O-])n1CCO` [METRONIDAZOLE], the MNTC at 48 h in series [1] turned out to be 903 µM; in series [2], 869 µM. In addition, the figures for the concentration for half-maximal inhibition (IC50) in the series with Giardia intestinalis and in the series on Entamoeba histolytica were 5.17 µM and 4.4 µM, respectively.
